Experiments:
Assay in all cases: biochemical
CYP2C9 = CYP2C9 (Homo sapiens, UniProt P11712)
CYP1A2 = target: T1, CYP1A2 (Homo sapiens, UniProt P05177)
T1 sequence (P05177 1-516): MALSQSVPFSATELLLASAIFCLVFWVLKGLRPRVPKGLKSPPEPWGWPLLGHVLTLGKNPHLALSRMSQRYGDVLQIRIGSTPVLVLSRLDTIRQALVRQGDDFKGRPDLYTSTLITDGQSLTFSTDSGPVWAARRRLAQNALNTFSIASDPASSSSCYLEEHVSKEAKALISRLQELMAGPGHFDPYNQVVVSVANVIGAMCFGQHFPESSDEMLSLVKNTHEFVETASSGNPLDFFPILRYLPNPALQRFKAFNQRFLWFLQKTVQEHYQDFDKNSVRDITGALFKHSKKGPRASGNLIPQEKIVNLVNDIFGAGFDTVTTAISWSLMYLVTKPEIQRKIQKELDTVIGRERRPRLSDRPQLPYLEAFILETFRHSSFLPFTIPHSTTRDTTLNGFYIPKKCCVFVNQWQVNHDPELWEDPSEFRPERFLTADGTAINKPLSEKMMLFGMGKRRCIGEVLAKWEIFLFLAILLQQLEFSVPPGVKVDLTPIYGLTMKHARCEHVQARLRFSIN

CYP2C19 = CYP2C19 (Homo sapiens, UniProt P33261)
Chain of CYP2C19 (P33261 whole entry): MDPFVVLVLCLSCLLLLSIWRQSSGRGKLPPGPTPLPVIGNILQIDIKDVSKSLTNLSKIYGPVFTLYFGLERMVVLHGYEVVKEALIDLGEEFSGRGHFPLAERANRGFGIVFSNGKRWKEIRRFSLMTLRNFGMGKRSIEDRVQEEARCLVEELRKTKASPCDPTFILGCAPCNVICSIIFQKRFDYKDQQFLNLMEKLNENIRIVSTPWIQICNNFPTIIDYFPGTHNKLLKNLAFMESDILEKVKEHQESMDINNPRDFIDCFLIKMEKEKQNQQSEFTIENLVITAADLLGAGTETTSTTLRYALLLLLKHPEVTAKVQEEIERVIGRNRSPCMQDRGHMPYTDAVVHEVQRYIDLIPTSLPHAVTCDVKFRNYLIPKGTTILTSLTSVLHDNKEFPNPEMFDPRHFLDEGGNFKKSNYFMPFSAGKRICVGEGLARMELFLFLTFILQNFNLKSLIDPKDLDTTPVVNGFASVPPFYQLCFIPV

CYP2D6 = CYP2D6 (Homo sapiens, UniProt P10635)
Chain of CYP2D6 (P10635 whole entry): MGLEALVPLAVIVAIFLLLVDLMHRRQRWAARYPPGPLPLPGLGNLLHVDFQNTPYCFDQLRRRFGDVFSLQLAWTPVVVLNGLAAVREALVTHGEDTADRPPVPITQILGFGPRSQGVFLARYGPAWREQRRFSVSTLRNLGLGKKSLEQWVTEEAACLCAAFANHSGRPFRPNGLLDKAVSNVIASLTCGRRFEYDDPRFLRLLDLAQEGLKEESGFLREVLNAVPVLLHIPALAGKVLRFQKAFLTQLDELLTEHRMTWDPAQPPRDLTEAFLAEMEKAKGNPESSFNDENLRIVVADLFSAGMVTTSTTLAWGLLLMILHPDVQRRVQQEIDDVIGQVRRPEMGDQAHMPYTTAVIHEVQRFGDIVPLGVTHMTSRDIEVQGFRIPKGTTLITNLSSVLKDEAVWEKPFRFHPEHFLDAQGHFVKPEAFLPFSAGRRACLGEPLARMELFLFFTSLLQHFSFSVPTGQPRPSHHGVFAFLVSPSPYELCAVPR

CYP3A4 = CYP3A4 (Homo sapiens, UniProt P08684)
Chain of CYP3A4 (P08684 whole entry): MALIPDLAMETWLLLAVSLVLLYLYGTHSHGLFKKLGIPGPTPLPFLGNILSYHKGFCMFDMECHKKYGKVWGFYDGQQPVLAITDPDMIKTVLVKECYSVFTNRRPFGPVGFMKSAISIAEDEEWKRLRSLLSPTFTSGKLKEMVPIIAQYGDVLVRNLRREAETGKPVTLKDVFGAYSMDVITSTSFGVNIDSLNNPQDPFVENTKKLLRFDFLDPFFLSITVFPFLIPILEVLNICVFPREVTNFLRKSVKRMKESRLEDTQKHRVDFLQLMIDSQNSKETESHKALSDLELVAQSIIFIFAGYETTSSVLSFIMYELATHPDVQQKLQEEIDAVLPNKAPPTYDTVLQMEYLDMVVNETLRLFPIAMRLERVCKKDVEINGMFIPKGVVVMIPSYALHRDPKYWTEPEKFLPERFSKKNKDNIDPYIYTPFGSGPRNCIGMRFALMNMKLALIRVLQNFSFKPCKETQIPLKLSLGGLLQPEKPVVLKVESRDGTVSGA

Measured: IC50

Chain of CYP2C9 (P11712 whole entry): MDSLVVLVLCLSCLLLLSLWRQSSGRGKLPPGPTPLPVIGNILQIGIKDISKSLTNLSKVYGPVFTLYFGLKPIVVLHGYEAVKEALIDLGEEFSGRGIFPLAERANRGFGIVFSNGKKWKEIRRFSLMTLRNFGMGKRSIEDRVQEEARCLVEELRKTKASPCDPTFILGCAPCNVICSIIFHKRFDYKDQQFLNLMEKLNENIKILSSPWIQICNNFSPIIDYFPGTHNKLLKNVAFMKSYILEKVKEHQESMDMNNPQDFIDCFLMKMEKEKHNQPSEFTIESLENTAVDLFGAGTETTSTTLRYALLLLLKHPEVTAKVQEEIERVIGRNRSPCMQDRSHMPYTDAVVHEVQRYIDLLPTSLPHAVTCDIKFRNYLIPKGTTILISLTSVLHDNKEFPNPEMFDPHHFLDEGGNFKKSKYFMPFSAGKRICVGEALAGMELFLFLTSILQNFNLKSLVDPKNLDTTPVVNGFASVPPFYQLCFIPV

O=C(O)CCC(=NO)c1nc2ccccc2n([C@H]2C[C@H]3CCC[C@@H](C2)N3C2CCCCCCCCC2)c1=O [Compound 18]
> 20 µM: all assays above

O=C(O)C(=NOCCO)c1nc2ccccc2n([C@H]2C[C@H]3CC[C@@H](C2)N3C2CC3CCCCC(C3)C2)c1=O (stereo partly drawn) [Compound 19]
> 20 µM: all assays above

CO/N=C(\C(=O)O)c1nc2ccccc2n([C@H]2C[C@H]3CC[C@@H](C2)N3C2CC3CCCCC(C3)C2)c1=O (stereo partly drawn) [Compound 20, (Z)-2-(4-((1R,3R)-8-(bicyclo[4.3.1]decan-8-yl)-8-azabicyclo[3.2.1]octan-3-yl)-3-oxo-3,4-dihydroquinoxalin-2-yl)-2-(methoxyimino)acetic acid]
> 20 µM: all assays above

CC(=NOCC(=O)O)c1nc2ccccc2n(C2CC3CCC(C2)N3C2CC3CCCCC(C3)C2)c1=O (stereo not drawn) [Compound 22]
> 20 µM: all assays above

C/C(=N\OCC(=O)O)c1nc2ccccc2n([C@H]2C[C@H]3CCC[C@@H](C2)N3C2CC3CCCCC(C3)C2)c1=O (stereo partly drawn) [Compound 24, 2-((E)-1-(4-((1R,3R)-9-(bicyclo[4.3.1]decan-8-yl)-9-azabicyclo[3.3.1]nonan-3-yl)-3-oxo-3,4-dihydroquinoxalin-2-yl)ethylideneaminooxy)acetic acid]
> 20 µM: all assays above

CCON=C(C(=O)O)c1nc2ccccc2n([C@H]2C[C@H]3CCC[C@@H](C2)N3C2CC3CCCC(C3)C2)c1=O (stereo partly drawn) [Compound 30]
> 20 µM: all assays above

CC(C)ON=C(C(=O)O)c1nc2ccccc2n([C@H]2C[C@H]3CCC[C@@H](C2)N3C2CC3CCCC(C3)C2)c1=O (stereo partly drawn) [Compound 31]
> 20 µM: all assays above

CCON=C(C(=O)O)c1nc2ccccc2n([C@H]2C[C@H]3CCC[C@@H](C2)N3C2CC3CCCCC(C3)C2)c1=O (stereo partly drawn) [Compound 32, 2-(4-((1R,3R)-9-(bicyclo[4.3.1]decan-8-yl)-9-azabicyclo[3.3.1]nonan-3-yl)-3-oxo-3,4-dihydroquinoxalin-2-yl)-2-(ethoxyimino)acetic acid]
> 20 µM: all assays above

CC(C)O/N=C(\C(=O)O)c1nc2ccccc2n([C@H]2C[C@H]3CCC[C@@H](C2)N3C2CC3CCCCC(C3)C2)c1=O (stereo partly drawn) [Compound 33, 2-(4-((1R,3R)-9-(bicyclo[4.3.1]decan-8-yl)-9-azabicyclo[3.3.1]nonan-3-yl)-3-oxo-3,4-dihydroquinoxalin-2-yl)-2-(isopropoxyimino)acetic acid]
> 20 µM: all assays above

CCON=C(C(=O)O)c1nc2ccccc2n([C@H]2C[C@H]3CC[C@@H](C2)N3C2CC3CCCCC(C3)C2)c1=O (stereo partly drawn) [Compound 36]
> 20 µM: all assays above

CC(C)ON=C(C(=O)O)c1nc2ccccc2n([C@H]2C[C@H]3CC[C@@H](C2)N3C2CC3CCCCC(C3)C2)c1=O (stereo partly drawn) [Compound 37, [4-((1S,3R,5R)-(1R,6S,8S)-8-bicyclo[4.3.1]dec-8-yl-8-aza-bicyclo[3.2.1]oct-3-yl)-3-oxo-3,4-dihydro-quinoxalin-2-yl]-isopropoxyimino-acetic acid]
> 20 µM: all assays above

NC(=O)CO/N=C(\C(=O)O)c1nc2ccccc2n([C@H]2C[C@H]3CCC[C@@H](C2)N3C2CC3CCCC(C3)C2)c1=O (stereo partly drawn) [Compound 38, (Z)-2-(2-amino-2-oxoethoxyimino)-2-(4-((1R,3R)-9-(bicyclo[3.3.1]nonan-3-yl)-9-azabicyclo[3.3.1]nonan-3-yl)-3-oxo-3,4-dihydroquinoxalin-2-yl)acetic acid]
> 20 µM: all assays above

NC(=O)CO/N=C(\CCC(=O)O)c1nc2ccccc2n([C@H]2C[C@H]3CCC[C@@H](C2)N3C2CC3CCCC(C3)C2)c1=O (stereo partly drawn) [Compound 39]
> 20 µM: all assays above

NC(=O)CO/N=C(\CCC(=O)O)c1nc2ccccc2n([C@H]2C[C@H]3CCC[C@@H](C2)N3C2CC3CCCCC(C3)C2)c1=O (stereo partly drawn) [Compound 41, (E)-4-(2-amino-2-oxoethoxyimino)-4-(4-((1R,3R)-9-(bicyclo[4.3.1]decan-8-yl)-9-azabicyclo[3.3.1]nonan-3-yl)-3-oxo-3,4-dihydroquinoxalin-2-yl)butanoic acid]
> 20 µM: all assays above

CNC(=O)CCC(=NOCC(=O)O)c1nc2ccccc2n([C@H]2C[C@H]3CCC[C@@H](C2)N3C2CC3CCCC(C3)C2)c1=O (stereo partly drawn) [Compound 42, 2-(((1-(4-((1R,1′R,3r,3′R,5S,5′S)-[3,9′-bi(9′-azabicyclo[3.3.1]nonan)]-3′-yl)-3-oxo-3,4-dihydroquinoxalin-2-yl)-4-(methylamino)-4-oxobutylidene)amino)oxy)acetic acid]
> 20 µM: all assays above

CNC(=O)/C(=N\OCC(=O)O)c1nc2ccccc2n([C@H]2C[C@H]3CCC[C@@H](C2)N3C2CC3CCCC(C3)C2)c1=O (stereo partly drawn) [Compound 43]
> 20 µM: all assays above

NC(=O)CCC(=NOCC(=O)O)c1nc2ccccc2n([C@H]2C[C@H]3CCC[C@@H](C2)N3C2CC3CCCC(C3)C2)c1=O (stereo partly drawn) [Compound 44]
> 20 µM: all assays above

NC(=O)CO/N=C(\C(=O)O)c1nc2ccccc2n([C@H]2C[C@H]3CCC[C@@H](C2)N3C2CC3CCCCC(C3)C2)c1=O (stereo partly drawn) [Compound 45, (Z)-2-(2-amino-2-oxoethoxyimino)-2-(4-((1R,3R)-9-(bicyclo[4.3.1]decan-8-yl)-9-azabicyclo[3.3.1]nonan-3-yl)-3-oxo-3,4-dihydroquinoxalin-2-yl)acetic acid]
> 20 µM: all assays above

COCCO/N=C(\C(=O)O)c1nc2ccccc2n([C@H]2C[C@H]3CCC[C@@H](C2)N3C2CC3CCCCC(C3)C2)c1=O (stereo partly drawn) [Compound 46]
> 20 µM: all assays above

COCCO/N=C(\C(=O)O)c1nc2ccccc2n([C@H]2C[C@H]3CCC[C@@H](C2)N3C2CC3CCCC(C3)C2)c1=O (stereo partly drawn) [Compound 49]
> 20 µM: all assays above

CON=C(C(=O)O)c1nc2ccccc2n([C@H]2C[C@H]3COC[C@@H](C2)N3C2CC3CCCCC(C3)C2)c1=O (stereo partly drawn) [Compound 50, [4-((1R,5S,7S)-(1S,6R,8R)-9-bicyclo[4.3.1]dec-8-yl-3-oxa-9-aza-bicyclo[3.3.1]non-7-yl)-3-oxo-3,4-dihydro-quinoxalin-2-yl]-methoxyimino-acetic acid]
> 20 µM: all assays above

Reference: US9040533B2, “Oxime-substituted-quinoxaline-type piperidine compounds as ORL-1 modulators” (priority 2012, dated 2015)
